# pIC50: −log10 of the molar value.
# What was measured:
# [1] = system: ConA-stimulated lymphocytes; experiment: IL-2 production from ConA-stimulated lymphocytes (ELISA); type: cell-based, mouse; conditions: without drug 3724.4
# Method: Mice were sacrificed by cervical dislocation, and spleens were collected under sterile conditions then teased through a nylon mesh. Erythrocytes were lysed. Cells were washed and resuspended at 5×10^6/ml in RPMI-1640 media with 10% FBS.
# 1 ml of spleen cells were treated with or without ConA (5 μg/ml) or Sac (1:10000) and in the presence or absence of drugs in a final volume of 2 ml.
# After 24 h culture at 37° C., 5% CO2 in a humidified incubator, cell-free supernatant was collected and frozen at −20° C. for ELISA.
# IL-2, IL-12p40, IL-10, and IFN-γ levels were determined by Enzyme Linked Immuno Sorbance Assay (ELISA). TMB was taken as the enzyme substrate. The absorbance was measured at 450/570 nm by BioRad microplate reader. The amount of cytokines in sample supernatants were calculated based on standard curve using standard murine cytokines (rIL-2, rIL-12, rIL-10, and rIFN-γ).
# [2] = system: DNFB-induced mouse DTH response; experiment: DNFB-induced mouse delayed type hypersensitivity response (DTH); type: in vivo
# Method: Female Balb/c mice (age of 6-8 wk) were randomly divided into groups and immunized with 20 μl 0.5% DNFB solution in absolute acetone-olive oil (4:1) on each hind foot on day 0 and 1;
# 7-9 days after the initial immunization, mice were boosted with 10 μl 0.4% DNFB on both sides of the left ear, whereas the right ear was treated with vehicle alone;
# Compounds were administered intraperitoneally (i.p.) or orally (p.o.) to the mice 1 h before DNFB booster immunization and 12 h later.
# Ear swelling and other indexes were assessed 24-48 h after booster immunization.
# Note: Female ICR mice (age of 6-8 wk) were immunized with 0.7% DNFB solution and boosted with 0.6% DNFB solution.
# rat adjuvant arthritis = experiment: Rat adjuvant arthritis (AA), drug prevention; type: in vivo
# Method: SD rats were immunized on day 0 by intradermal injection of Complete Freund's adjuvant (CFA), containing 10 mg heat-inactivated BCG in 1 ml paraffin oil, into the left hind paw in 0.1 ml for each rat. Right hind paw volume was determined before immunization (basic value, day 0) and repeated every 4 days from day 12. The polyarthritis severity was graded on a scale of 0-4: 0=no swelling; 1=isolated phalanx joint involvement; 2=involvement of phalanx joint and digits; 3=involvement of the entire region down to the ankle; 4=involvement of entire paw, including ankle. The maximum joint score was 16 for each rat.
# Lymphocyte proliferation assay: Splenocytes were prepared aseptically from AA rat at day 28 and resuspended in RPMI-1640 medium supplemented with 10% fetal bovine serum.
# 5×10^5 cells each well were inoculated into 96-well plate with ConA or LPS in a final volume of 200 μl. Cells were cultured in 5% CO2 incubator at 37° C. for 48 h. Cells were pulsed with 1.9×10^10 Bq/well of [^3H]-thymidine 7-8 h before harvest. After the culture finished, cells were harvested onto glass fiber filters and the incorporated radioactivity was counted by a Beta Scintillator (MicroBeta Trilux, PerkinElmer Life Sciences).
# [3] = system: WI-38 (human lung fibroblasts); experiment: Cell proliferation, WI-38; type: cell-based; conditions: read-out: Inhibitory effect on tumor cell proliferation IC50
# [4] = Table 5, i.p., dosage 1 mg/kg/d for 5 days, control 20
structure (smiles),measurement,setting,value
"CC(C)[C@]12O[C@H]1[C@@H]1O[C@]13[C@]1(O[C@H]1C[C@@]1(O)C4=C(CC[C@]31C)C(=O)OC4)[C@@H]2O [LLDT-8, (5R)-5-hydroxytriptolide]","IL-2 production by lymphocytes stimulated with ConA, Mean Value",[1]; 0.3 nM,3857.2 pg/mL
same,"IL-2 production by lymphocytes stimulated with ConA, Mean Value",[1]; 3 nM,3494.2 pg/mL
same,"IL-2 production by lymphocytes stimulated with ConA, Mean Value",[1]; 30 nM,2872.7 pg/mL
same,Body weight after i.p.,[2]; [4],21/21 g
same,Body weight before i.p.,[2]; [4],21/21 g
same,Right ear,"[2]; Table 5, i.p., dosage 1 mg/kg/d for 5 days, control 31.2",35.5 mg
same,Ear swelling,"[2]; Table 5, i.p., dosage 1 mg/kg/d for 5 days, control 32.6",21.4 mg
same,Left ear,"[2]; Table 5, i.p., dosage 1 mg/kg/d for 5 days, control 63.8",56.9 mg
same,Spleen,"[2]; Table 5, i.p., dosage 1 mg/kg/d for 5 days, control 142.4",140.3 mg
same,Right ear,"[2]; Table 6, i.p. once a day for 2 days, ICR mice, dosage 0.04 mg/kg, control 30.0",29.4 mg
same,Ear swelling,"[2]; Table 6, i.p. once a day for 2 days, ICR mice, dosage 0.04 mg/kg, control 31.1",26.1 mg
same,Left ear,"[2]; Table 6, i.p. once a day for 2 days, ICR mice, dosage 0.04 mg/kg, control 61.1",55.5 mg
same,Right ear,"[2]; Table 6, i.p. once a day for 2 days, ICR mice, dosage 0.2 mg/kg, control 30.0",37.4 mg
same,Ear swelling,"[2]; Table 6, i.p. once a day for 2 days, ICR mice, dosage 0.2 mg/kg, control 31.1",17.9 mg
same,Left ear,"[2]; Table 6, i.p. once a day for 2 days, ICR mice, dosage 0.2 mg/kg, control 61.1",55.3 mg
same,Right ear,"[2]; Table 6, i.p. once a day for 2 days, ICR mice, dosage 1 mg/kg, control 30.0",33.0 mg
same,Ear swelling,"[2]; Table 6, i.p. once a day for 2 days, ICR mice, dosage 1 mg/kg, control 31.1",23.4 mg
same,Left ear,"[2]; Table 6, i.p. once a day for 2 days, ICR mice, dosage 1 mg/kg, control 61.1",56.4 mg
same,Ear swelling X ± SD,"[2]; Table 7, i.p. at low dosages, Balb/c mice, dosage 2 (mg/kg), control 23.3 ± 4.3",16.8 ± 5.4 mg
same,Right ear,"[2]; Table 7, i.p. at low dosages, Balb/c mice, dosage 2 (mg/kg), control 26.3",27.5 mg
same,Left ear,"[2]; Table 7, i.p. at low dosages, Balb/c mice, dosage 2 (mg/kg), control 49.6",44.3 mg
same,Ear swelling X ± SD,"[2]; Table 7, i.p. at low dosages, Balb/c mice, dosage 8 (mg/kg), control 23.3 ± 4.3",16.6 ± 4.1 mg
same,Right ear,"[2]; Table 7, i.p. at low dosages, Balb/c mice, dosage 8 (mg/kg), control 26.3",29.7 mg
same,Left ear,"[2]; Table 7, i.p. at low dosages, Balb/c mice, dosage 8 (mg/kg), control 49.6",46.3 mg
same,Ear swelling X ± SD,"[2]; Table 7, i.p. at low dosages, Balb/c mice, dosage 40 (mg/kg), control 23.3 ± 4.3",16.9 ± 2.7 mg
same,Right ear,"[2]; Table 7, i.p. at low dosages, Balb/c mice, dosage 40 (mg/kg), control 26.3",25.7 mg
same,Left ear,"[2]; Table 7, i.p. at low dosages, Balb/c mice, dosage 40 (mg/kg), control 49.6",42.6 mg
same,Ear swelling X ± SD,"[2]; Table 7, i.p. at low dosages, Balb/c mice, dosage 200 (mg/kg), control 23.3 ± 4.3",17.1 ± 5.1 mg
same,Right ear,"[2]; Table 7, i.p. at low dosages, Balb/c mice, dosage 200 (mg/kg), control 26.3",27.2 mg
same,Left ear,"[2]; Table 7, i.p. at low dosages, Balb/c mice, dosage 200 (mg/kg), control 49.6",44.3 mg
same,Body weight after i.p.,"[2]; Table 8, i.p., Balb/c mice, dosage 0.4 (mg/kg), control 21.9",22.6 g
same,Body weight before i.p.,"[2]; Table 8, i.p., Balb/c mice, dosage 0.4 (mg/kg), control 22.4",22.3 g
same,Ear swelling X ± SD,"[2]; Table 8, i.p., Balb/c mice, dosage 0.4 (mg/kg), control 22.7 ± 2.1",17.7 ± 4.7 mg
same,Right ear,"[2]; Table 8, i.p., Balb/c mice, dosage 0.4 (mg/kg), control 26.4",29.2 mg
same,Left ear,"[2]; Table 8, i.p., Balb/c mice, dosage 0.4 (mg/kg), control 49.1",47.0 mg
same,Spleen,"[2]; Table 8, i.p., Balb/c mice, dosage 0.4 (mg/kg), control 154.0",164.2 mg
same,Body weight after i.p.,"[2]; Table 8, i.p., Balb/c mice, dosage 4 (mg/kg), control 21.9",21.8 g
same,Body weight before i.p.,"[2]; Table 8, i.p., Balb/c mice, dosage 4 (mg/kg), control 22.4",21.4 g
same,Ear swelling X ± SD,"[2]; Table 8, i.p., Balb/c mice, dosage 4 (mg/kg), control 22.7 ± 2.1",15.3 ± 4.7 mg
same,Right ear,"[2]; Table 8, i.p., Balb/c mice, dosage 4 (mg/kg), control 26.4",26.8 mg
same,Left ear,"[2]; Table 8, i.p., Balb/c mice, dosage 4 (mg/kg), control 49.1",42.1 mg
same,Spleen,"[2]; Table 8, i.p., Balb/c mice, dosage 4 (mg/kg), control 154.0",163.3 mg
same,Body weight after i.p.,"[2]; Table 8, i.p., Balb/c mice, dosage 40 (mg/kg), control 21.9",21.4 g
same,Body weight before i.p.,"[2]; Table 8, i.p., Balb/c mice, dosage 40 (mg/kg), control 22.4",21.6 g
same,Ear swelling X ± SD,"[2]; Table 8, i.p., Balb/c mice, dosage 40 (mg/kg), control 22.7 ± 2.1",17.1 ± 4.9 mg
same,Right ear,"[2]; Table 8, i.p., Balb/c mice, dosage 40 (mg/kg), control 26.4",29.6 mg
same,Left ear,"[2]; Table 8, i.p., Balb/c mice, dosage 40 (mg/kg), control 49.1",46.7 mg
same,Spleen,"[2]; Table 8, i.p., Balb/c mice, dosage 40 (mg/kg), control 154.0",168.5 mg
same,Body weight after (i.p.),"[2]; Table 9, p.o., Balb/c mice, dosage 1 mg/kg/d for 2 days, control 19",21/21 g
same,Body weight before (i.p.),"[2]; Table 9, p.o., Balb/c mice, dosage 1 mg/kg/d for 2 days, control 20",21/21 g
same,Ear swelling,"[2]; Table 9, p.o., Balb/c mice, dosage 1 mg/kg/d for 2 days, control 23.4",13.1 mg
same,Right ear,"[2]; Table 9, p.o., Balb/c mice, dosage 1 mg/kg/d for 2 days, control 25.9",27.3 mg
same,Left ear,"[2]; Table 9, p.o., Balb/c mice, dosage 1 mg/kg/d for 2 days, control 49.3",40.4 mg
same,Spleen,"[2]; Table 9, p.o., Balb/c mice, dosage 1 mg/kg/d for 2 days, control 125.8",124.4 mg
same,Right ear,"[2]; Table 10, p.o., ICR mice, dosage 0.04 mg/kg, control 33.7",35.2 mg
same,Ear swelling,"[2]; Table 10, p.o., ICR mice, dosage 0.04 mg/kg, control 41.5",33.8 mg
same,Left ear,"[2]; Table 10, p.o., ICR mice, dosage 0.04 mg/kg, control 75.2",69.0 mg
same,Right ear,"[2]; Table 10, p.o., ICR mice, dosage 0.2 mg/kg, control 33.7",38.2 mg
same,Ear swelling,"[2]; Table 10, p.o., ICR mice, dosage 0.2 mg/kg, control 41.5",30.0 mg
same,Left ear,"[2]; Table 10, p.o., ICR mice, dosage 0.2 mg/kg, control 75.2",68.2 mg
same,Right ear,"[2]; Table 10, p.o., ICR mice, dosage 1 mg/kg, control 33.7",39.4 mg
same,Ear swelling,"[2]; Table 10, p.o., ICR mice, dosage 1 mg/kg, control 41.5",24.1 mg
same,Left ear,"[2]; Table 10, p.o., ICR mice, dosage 1 mg/kg, control 75.2",63.5 mg
same,body weight decrease in AA rat,"rat adjuvant arthritis; LLDT-8 3, 1 and 0.2 mg/Kg/d, CsA 10 mg/Kg/d",abrogation of body weight decrease
same,"immune cell infiltration, synovial tissue proliferation, cartilage erosion",rat adjuvant arthritis; compared with AA model group,"marked decrease of immune cell infiltration, smaller degree of synovial tissue proliferation, and less cartilage erosion"
same,right hind paw swelling and polyarthritic symptoms,"rat adjuvant arthritis; i.p. day −2 to day 28, LLDT-8 3, 1 and 0.2 mg/Kg/d, CsA 10 mg/Kg/d",diminished the right hind paw swelling and polyarthritic symptoms
same,polyarthritis severity,rat adjuvant arthritis; score 0-4 per paw,amelioration of established polyarthritis
same,proliferation of B splenocytes induced by LPS,rat adjuvant arthritis; splenocytes from AA rat at day 28,inhibited the proliferation of B splenocytes induced by LPS
same,pIC50,[3],6.32

# — US7626044B2, “Triptolide derivatives and their uses” (priority 2002, dated 2009)
